In brackets after ≈: the same amount, converted by molar mass.
Legend:
[1] = in vivo; conditions: Sprague-Dawley, rat, iv
[2] = physchem; conditions: octanol/water
[3] = physchem; conditions: phosphate buffer
[4] = target: Voltage-gated inwardly rectifying potassium channel KCNH2 (Homo sapiens, UniProt Q12809);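 note: hERG channel blockade measured by electrophysiology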
[5] = in vitro; conditions: dog, MDCK
[6] = in vitro; conditions: PAMPA
[7] = target: Sodium channel protein type 5 subunit alpha (Homo sapiens, UniProt Q14524)
[8] = rat, in vivo, po
[9] = in vivo; conditions: Sprague-Dawley, rat, po
[10] = in vivo; conditions: Sprague-Dawley, rat, po; remark: listed apart in the source
[11] = tested on: MDR1; assay: in vitro; conditions: dog, MDCK-MDR1
[12] = human, microsomes, 0.5 h, 0.5 µM
[13] = rat, microsomes, 0.5 h, 0.5 µM
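Throughout, for logD: distribution coefficient quantified using high-throughput LC-MS.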
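Throughout, for solubility: determined using a high-throughput solubility method.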

Chain of Sodium channel protein type 5 subunit alpha (Q14524 whole entry): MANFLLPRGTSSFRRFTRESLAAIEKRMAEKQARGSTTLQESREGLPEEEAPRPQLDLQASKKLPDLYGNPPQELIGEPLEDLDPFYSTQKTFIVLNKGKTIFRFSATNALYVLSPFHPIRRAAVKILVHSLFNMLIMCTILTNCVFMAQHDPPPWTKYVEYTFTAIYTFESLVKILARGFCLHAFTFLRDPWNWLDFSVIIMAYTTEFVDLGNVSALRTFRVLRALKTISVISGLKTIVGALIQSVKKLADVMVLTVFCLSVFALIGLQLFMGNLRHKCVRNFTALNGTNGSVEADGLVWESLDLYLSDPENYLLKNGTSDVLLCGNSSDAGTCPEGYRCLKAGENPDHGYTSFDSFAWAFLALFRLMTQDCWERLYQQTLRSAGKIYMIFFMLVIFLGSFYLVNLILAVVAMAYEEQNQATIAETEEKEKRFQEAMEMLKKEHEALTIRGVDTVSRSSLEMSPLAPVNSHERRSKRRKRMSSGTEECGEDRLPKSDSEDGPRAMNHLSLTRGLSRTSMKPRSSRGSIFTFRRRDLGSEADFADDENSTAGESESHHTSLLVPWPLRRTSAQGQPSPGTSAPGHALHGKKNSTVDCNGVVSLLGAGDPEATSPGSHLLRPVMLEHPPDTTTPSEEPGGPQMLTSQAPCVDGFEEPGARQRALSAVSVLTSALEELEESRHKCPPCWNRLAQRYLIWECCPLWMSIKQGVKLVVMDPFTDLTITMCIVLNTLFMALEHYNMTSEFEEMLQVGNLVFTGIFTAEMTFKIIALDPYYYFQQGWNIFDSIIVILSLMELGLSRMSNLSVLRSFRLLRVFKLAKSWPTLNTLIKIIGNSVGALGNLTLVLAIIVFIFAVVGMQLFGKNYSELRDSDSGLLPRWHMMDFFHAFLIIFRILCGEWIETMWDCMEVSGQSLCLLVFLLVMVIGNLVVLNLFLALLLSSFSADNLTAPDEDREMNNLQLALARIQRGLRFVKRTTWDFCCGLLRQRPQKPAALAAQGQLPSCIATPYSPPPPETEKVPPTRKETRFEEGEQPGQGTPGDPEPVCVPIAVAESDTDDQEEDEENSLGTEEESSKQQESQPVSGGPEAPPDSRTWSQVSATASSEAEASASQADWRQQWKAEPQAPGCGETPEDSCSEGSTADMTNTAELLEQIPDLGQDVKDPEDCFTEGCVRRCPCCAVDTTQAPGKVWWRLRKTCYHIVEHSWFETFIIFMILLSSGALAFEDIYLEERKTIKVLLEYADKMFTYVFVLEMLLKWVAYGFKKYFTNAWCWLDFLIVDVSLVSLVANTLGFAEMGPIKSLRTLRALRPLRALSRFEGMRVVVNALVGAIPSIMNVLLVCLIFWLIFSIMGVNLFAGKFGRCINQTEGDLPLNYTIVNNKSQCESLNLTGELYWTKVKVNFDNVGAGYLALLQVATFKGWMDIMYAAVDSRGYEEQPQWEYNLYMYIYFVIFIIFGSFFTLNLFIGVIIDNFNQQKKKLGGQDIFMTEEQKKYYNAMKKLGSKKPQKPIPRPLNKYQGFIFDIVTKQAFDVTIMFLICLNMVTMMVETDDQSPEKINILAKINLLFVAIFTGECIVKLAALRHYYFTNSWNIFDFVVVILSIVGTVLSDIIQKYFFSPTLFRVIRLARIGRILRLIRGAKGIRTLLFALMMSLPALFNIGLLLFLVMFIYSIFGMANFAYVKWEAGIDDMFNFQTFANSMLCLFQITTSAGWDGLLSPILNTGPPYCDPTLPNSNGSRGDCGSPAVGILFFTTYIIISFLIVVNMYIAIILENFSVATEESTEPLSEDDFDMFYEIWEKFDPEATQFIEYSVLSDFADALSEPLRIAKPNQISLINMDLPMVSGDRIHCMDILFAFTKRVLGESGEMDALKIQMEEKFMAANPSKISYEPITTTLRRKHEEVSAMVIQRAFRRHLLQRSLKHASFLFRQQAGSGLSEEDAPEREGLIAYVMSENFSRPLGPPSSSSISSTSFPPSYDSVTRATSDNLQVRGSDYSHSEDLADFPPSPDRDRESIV
Chain of Voltage-gated inwardly rectifying potassium channel KCNH2 (Q12809 whole entry): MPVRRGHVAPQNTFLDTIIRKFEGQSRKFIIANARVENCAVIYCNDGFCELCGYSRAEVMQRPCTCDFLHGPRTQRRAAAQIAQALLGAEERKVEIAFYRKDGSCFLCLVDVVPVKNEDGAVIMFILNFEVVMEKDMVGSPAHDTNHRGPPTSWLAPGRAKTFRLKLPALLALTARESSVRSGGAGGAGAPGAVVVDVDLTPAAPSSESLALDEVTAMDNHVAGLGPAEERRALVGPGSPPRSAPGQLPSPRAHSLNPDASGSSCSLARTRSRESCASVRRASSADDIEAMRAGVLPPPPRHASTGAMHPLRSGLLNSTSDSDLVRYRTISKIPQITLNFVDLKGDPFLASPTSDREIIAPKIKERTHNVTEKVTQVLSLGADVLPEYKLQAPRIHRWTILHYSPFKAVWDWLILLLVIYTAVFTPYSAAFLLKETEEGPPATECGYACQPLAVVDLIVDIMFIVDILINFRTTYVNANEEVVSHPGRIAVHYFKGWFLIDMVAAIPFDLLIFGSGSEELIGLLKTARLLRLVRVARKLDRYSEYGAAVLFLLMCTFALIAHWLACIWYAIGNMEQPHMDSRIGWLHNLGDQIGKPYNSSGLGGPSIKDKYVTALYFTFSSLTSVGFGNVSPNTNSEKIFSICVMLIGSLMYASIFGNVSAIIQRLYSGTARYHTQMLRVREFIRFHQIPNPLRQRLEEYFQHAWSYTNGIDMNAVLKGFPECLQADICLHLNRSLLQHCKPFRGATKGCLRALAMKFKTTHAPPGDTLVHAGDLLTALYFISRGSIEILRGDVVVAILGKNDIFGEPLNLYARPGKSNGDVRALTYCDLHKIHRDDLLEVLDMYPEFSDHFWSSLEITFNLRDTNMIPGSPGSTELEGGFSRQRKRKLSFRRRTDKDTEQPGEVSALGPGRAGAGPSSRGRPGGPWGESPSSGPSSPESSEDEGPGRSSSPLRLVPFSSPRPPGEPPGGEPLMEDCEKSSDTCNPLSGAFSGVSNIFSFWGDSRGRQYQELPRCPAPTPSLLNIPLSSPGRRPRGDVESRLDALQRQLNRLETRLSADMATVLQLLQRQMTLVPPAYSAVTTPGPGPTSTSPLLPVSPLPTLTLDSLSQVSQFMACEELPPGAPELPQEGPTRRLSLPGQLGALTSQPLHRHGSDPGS

Row | SMILES | logD [2] | solubility [3] [µM] | Papp [5] [nm/s] | Papp [6] [nm/s] | CLH [12] [L/h/kg] | CLH [13] [L/h/kg] | IC50 [4] [µM] | IC50 [7] [µM] | further results
1 | O=C(N[C@@H]1CCOC1=O)c1ccc2cc(Oc3ccc(C(F)(F)F)cn3)ccc2n1 |  | 5 (≈ 2.09 µg/mL) |  | 327 |  |  |  | 33 | 
2 | O=C(c1ccc2cc(Oc3ccc(C(F)(F)F)cn3)ccc2n1)N1CCCC1 |  |  |  |  |  |  |  | 33 | 
3 | CN1CCN(C(=O)c2ccc3cc(Oc4ccccn4)ccc3n2)CC1 | 1.1 | 200 (≈ 69.7 µg/mL) | 80 |  |  |  | 16.8 |  | clearance [1]: 4.2 L/h/kg
4 | O=C(N[C@H]1C[C@@H](O)C1)c1ccc2cc(Oc3ccc(C(F)(F)F)cn3)ccc2n1 |  | 10 (≈ 4.03 µg/mL) |  | 195 |  |  |  | 33 | clearance [1]: 3.62 L/h/kg; bioavailability [10]: 23%
5 | O=C(c1ccc2cc(Oc3ccc(C(F)(F)F)cn3)ccc2n1)N1CCC1 |  |  |  |  |  |  |  | 33 | 
6 | O=C(NC1CC(F)C1)c1ccc2cc(Oc3ccc(C(F)(F)F)cn3)ccc2n1 (stereo unspecified) |  | 5 (≈ 2.03 µg/mL) |  | 167 |  |  |  | 33 | 
7 | O=C(NC1CCC1)c1ccc2cc(Oc3ccc(C(F)(F)F)cn3)ccc2n1 |  | 5 (≈ 1.94 µg/mL) |  | 34 |  |  |  | 31.3 | 
8 | O=C(NC1CCOC1)c1ccc2cc(Oc3ccc(C(F)(F)F)cn3)ccc2n1 (stereo unspecified) |  |  |  |  |  |  |  | 33 | 
9 | O=C(NC1CC(F)(F)C1)c1ccc2cc(Oc3ccc(C(F)(F)F)cn3)ccc2n1 |  | 5 (≈ 2.12 µg/mL) |  | 121 |  |  |  | 33 | bioavailability [10]: 82%
10 | NC(=O)CNC(=O)COc1ccc2cc(Oc3ccccn3)ccc2n1 | 2.2 | 57.5 (≈ 20.3 µg/mL) | 87 |  | 2 | < 2.7 | 30 |  | 
11 | N#Cc1ccc(-c2ccc3c(ccc(=O)n3CC(=O)N3CCCCC3)c2)cc1 |  |  |  | 161 | 2 | 6 | 17 |  | 
12 | O=C(COc1ccc2cc(Oc3ccc(C(F)(F)F)cn3)ccc2n1)N1CCCCC1 |  | 48 (≈ 20.7 µg/mL) | 386 |  | 14 | 55 |  |  | 
13 | N#Cc1ccc(-c2ccc3c(ccc(=O)n3CCN3CCCCC3)c2)cc1 |  |  |  | 83 | 2 | 6 | < 1 |  | 
14 | N#Cc1ccc(Oc2ccc3nc(OCC(=O)NCC(N)=O)ccc3c2)cc1 | 3 | 0.824 (≈ 0.31 µg/mL) | 128 |  | 2 | < 3 | > 30 |  | efflux ratio [11]: 14.9
15 | O=C1CN(C(=O)COc2ccc3cc(Oc4ccccn4)ccc3n2)CCN1 |  | 200 (≈ 75.7 µg/mL) | 220 |  | 3.9 | < 3.9 | 30 |  | 
16 | O=C(COc1ccc2cc(Oc3ccccn3)ccc2n1)N1CCCCC1 | 3.6 | 156 (≈ 56.7 µg/mL) | 669 |  | 6 | 144 | 30 |  | 
17 | CN1CCN(C(=O)COc2ccc3cc(Oc4ccc(C(F)(F)F)cn4)ccc3n2)CC1 |  | 200 (≈ 89.3 µg/mL) |  |  | 6 | 58 |  |  | 
18 | N#Cc1ccc(Oc2ccc3nc(OCCN4CCCCC4)ccc3c2)cc1 | 3.5 |  |  |  | 3 | 13 | < 1 |  | 
19 | O=C1CN(C(=O)COc2ccc3cc(Oc4ccc(C(F)(F)F)cn4)ccc3n2)CCN1 | 3.2 | 23 (≈ 10.3 µg/mL) | 441 |  | < 3.4 | < 3.7 |  |  | 

Second part, led by results:

Row | logD [2] | solubility [3] [µM] | Papp [5] [nm/s] | Papp [6] [nm/s] | CLH [12] [L/h/kg] | CLH [13] [L/h/kg] | SMILES | IC50 [4] [µM] | IC50 [7] [µM] | further results
20 | 3 | 200 (≈ 80.5 µg/mL) | 522 |  |  |  | O=C(c1ccc2cc(Oc3cccc(C(F)(F)F)n3)ccc2n1)N1CCNCC1 | 12.8 |  | clearance [1]: 5 L/h/kg
21 |  | 55 (≈ 22.3 µg/mL) |  | 316 |  |  | O=C(c1ccc2cc(Oc3ccc(C(F)(F)F)cn3)ccc2n1)N1CC[C@H](F)C1 |  | 33 | Vdss [8]: 6.47 L/kg; clearance [1]: 0.77 L/h/kg; half-life [9]: 3.67 h; bioavailability [10]: 104%
22 | 2.1 | 138 (≈ 55.7 µg/mL) |  | 15 |  |  | O=C(c1ccc2cc(Oc3ncc(C(F)(F)F)cn3)ccc2n1)N1CCNCC1 |  |  | 
23 | 3.4 | 150 (≈ 62.8 µg/mL) |  | 51 |  |  | O=C(c1ccc2cc(Oc3ccc(OC(F)(F)F)cn3)ccc2n1)N1CCNCC1 | 12.8 |  | half-life [9]: 12.6 h; bioavailability [10]: 92%
24 | 4 | 140 (≈ 56.2 µg/mL) |  | 21 |  |  | O=C(c1ccc2cc(Oc3ccc(C(F)(F)F)cc3)ccc2n1)N1CCNCC1 | 5.91 |  | efflux ratio [11]: 3.7
25 | 2.7 | 149 (≈ 60.1 µg/mL) |  | 38 |  |  | O=C(c1ccc2cc(Oc3cnc(C(F)(F)F)cn3)ccc2n1)N1CCNCC1 | 18.6 |  | efflux ratio [11]: 16.1
26 |  | 5 (≈ 2.05 µg/mL) |  | 30.4 |  |  | O=C(c1ccc2cc(Oc3ccc(C(F)(F)F)cn3)ccc2n1)N1CC(F)(F)C1 |  | 10.2 | 
27 |  | 150 (≈ 52.9 µg/mL) |  |  |  |  | O=C(c1ccc2cc(Oc3ccc(F)cn3)ccc2n1)N1CCNCC1 | 17 |  | 
28 |  | 78 (≈ 36.7 µg/mL) |  | 243 |  |  | O=C(c1ccc2cc(Oc3ccc(C(F)(F)F)cn3)ccc2n1)N1CCNC(C(F)(F)F)C1 (stereo unspecified) |  | 33 | Vdss [8]: 9.23 L/kg; clearance [1]: 2.43 L/h/kg; half-life [9]: 3.17 h; bioavailability [10]: 106%
29 |  | 18 (≈ 8.13 µg/mL) |  | 215 |  |  | CS(=O)(=O)C1CN(C(=O)c2ccc3cc(Oc4ccc(C(F)(F)F)cn4)ccc3n2)C1 |  |  | half-life [9]: 3.4 h; bioavailability [10]: 126%
30 | 3.4 | 200 (≈ 80.5 µg/mL) | 490 |  |  |  | O=C(c1ccc2cc(Oc3cc(C(F)(F)F)ccn3)ccc2n1)N1CCNCC1 | 7.3 |  | clearance [1]: 6.9 L/h/kg; bioavailability [10]: 91%
31 | 3.1 | 145 (≈ 54.4 µg/mL) | 197 |  |  |  | CC(=O)c1ccc(Oc2ccc3nc(C(=O)N4CCNCC4)ccc3c2)cc1 | 23.6 |  | half-life [9]: 3.3 h; bioavailability [10]: 54%
32 | 2.6 | 194 (≈ 69.5 µg/mL) | 4 |  |  |  | N#Cc1ccc(Oc2ccc3nc(C(=O)N4CCNCC4)ccc3c2)cc1 | 5.2 |  | clearance [1]: < 2 L/h/kg; bioavailability [10]: 89%
33 |  | 46 (≈ 22.3 µg/mL) | 246 |  |  |  | O=C(c1ccc2cc(Oc3ccc(C(F)(F)F)cn3)ccc2n1)N1CCN(CC(F)(F)F)CC1 |  | 33 | 
34 | 3.8 | 150 (≈ 69.8 µg/mL) |  | 8 |  |  | O=C(c1ccc2cc(Oc3ccc(S(=O)(=O)C(F)(F)F)cc3)ccc2n1)N1CCNCC1 | 4.27 |  | efflux ratio [11]: 45.5
35 | 2.9 | 143 (≈ 53.3 µg/mL) |  | 27 |  |  | N#Cc1ccc(COc2ccc3nc(C(=O)N4CCNCC4)ccc3c2)cc1 | 5.61 |  | efflux ratio [11]: 23.4
36 | 3.4 |  | 301 |  | 3 | < 3 | N#Cc1ccc(Oc2ccc3nc(OCC(=O)N4CCOCC4)ccc3c2)cc1 |  |  | 
37 | 2.7 | 200 (≈ 72.9 µg/mL) | 294 |  | 11 | 12 | O=C(COc1ccc2cc(Oc3ccccn3)ccc2n1)N1CCNCC1 |  |  | 
38 | 3.1 | 141 (≈ 56.7 µg/mL) | 321 |  | < 2 | < 3 | N#Cc1ccc(Oc2ccc3nc(OCC(=O)N4CCNC(=O)C4)ccc3c2)cc1 |  |  | 

— ChEMBL document CHEMBL5143671, “Discovery of (R)-(3-fluoropyrrolidin-1-yl)(6-((5-(trifluoromethyl)pyridin-2-yl)oxy)quinolin-2-yl)methanone (ABBV-318) and analogs as small molecule Nav1.7/ Nav1.8 blockers for the treatment of pain” (Bioorg Med Chem, 2022)
